Source: patent US10995101B2, “2-oxo-thiazole derivatives as A2A inhibitors and compounds for use in the treatment of cancers” (iTeos Therapeutics SA, priority 2017, dated 2021)

Target: A2A receptor (Homo sapiens, UniProt P29274)
Assay: Inhibition of cAMP production in HEK cells
Format: cell-based
Settings: HEK-293 cells with A2A receptor
Method: When the A2A receptor is activated, is induces the production of cAMP.
HEK-293 cells with a stable transfection of A2A receptor were bought from PerkinElmer® (# ES-011-C). […] Fresh media without the selection marker was added on the day immediately before the experiment to stop selection pressure.
Stimulation buffer b) mimics the human situation by increasing the amount of albumin present in the assay.
Compounds of the present invention were diluted 100× in either of the buffers depending on the assay performed. […] The total volume of the reaction was 20 μl (10 μl of cells, 5 μl of antagonist and 5 μl of agonist). The reaction was finalized by adding 10 μl of 4× EU-cAMP tracer working solution and 10 μl of 4× ULight-anti-cAMP working solution. The TR-FRET signal was measured after 1 hour using a Spectramax Paradigm (Molecular Devices).

[1] = IC50 (nM) (3 nM NECA as agonist, 0.1% BSA), 3 nM NECA as agonist, 0.1% BSA
[2] = IC50 (nM) (5 nM NECA as agonist, 2% HSA), 5 nM NECA as agonist, 2% HSA
[3] = IC50 (nM) (5 μM Adenosine as agonist, 2.0% HSA), 5 μM Adenosine as agonist, 2.0% HSA

A2A receptor, sequence (P29274 whole entry): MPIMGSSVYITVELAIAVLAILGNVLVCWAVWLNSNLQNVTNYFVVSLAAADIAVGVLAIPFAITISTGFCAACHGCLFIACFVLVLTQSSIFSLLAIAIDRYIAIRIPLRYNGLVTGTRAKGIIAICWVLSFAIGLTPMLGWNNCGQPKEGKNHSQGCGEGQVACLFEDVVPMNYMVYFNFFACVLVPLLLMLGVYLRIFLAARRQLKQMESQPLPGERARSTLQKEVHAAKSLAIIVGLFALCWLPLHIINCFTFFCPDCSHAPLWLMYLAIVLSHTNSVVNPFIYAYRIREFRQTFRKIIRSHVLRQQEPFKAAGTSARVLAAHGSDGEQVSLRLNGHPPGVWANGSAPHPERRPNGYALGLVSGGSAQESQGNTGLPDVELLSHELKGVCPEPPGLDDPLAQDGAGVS

Nc1nc2c(sc(=O)n2CCN2CCN(c3ccncn3)CC2)c2nc(-c3ccco3)nn12 [Compound 76, 5-amino-8-(furan-2-yl)-3-(2-(4-(pyrimidin-4-yl)piperazin-1-yl)ethyl)thiazolo[5,4-e][1,2,4]triazolo[1,5-c]pyrimidin-2(3H)-one]
IC50 [1]: 5 nM | IC50 [2]: 151 nM

C[C@H](Oc1cc(N2CCN(CCn3c(=O)sc4c3nc(N)n3nc(-c5ccco5)nc43)CC2)c(F)cc1F)C(=O)O (single isomer, unassigned) [Compound 60]
IC50 [1]: 0.8 nM | IC50 [2]: 4 nM | IC50 [3]: 240 nM

Nc1nc2c(sc(=O)n2CCN2CCN(c3cc(O[C@@H]4CNC[C@@H]4F)c(F)cc3F)CC2)c2nc(-c3ccco3)nn12 [Compound 93, 5-amino-3-(2-(4-(2,4-difluoro-5-(((3R,4S)-4-fluoropyrrolidin-3-yl)oxy)phenyl)piperazin-1-yl)ethyl)-8-(furan-2-yl)thiazolo[5,4-e][1,2,4]triazolo[1,5-c]pyrimidin-2(3H)-one]
IC50 [1]: 0.4 nM | IC50 [3]: 33 nM

CC(Oc1ccc(N2CCN(CCn3c(=O)sc4c3nc(N)n3nc(-c5ccco5)nc43)CC2)c(F)c1)C(=O)O (centres unmarked) [Compound 37, 2-(4-(4-(2-(5-amino-8-(furan-2-yl)-2-oxothiazolo[5,4-e][1,2,4]triazolo[1,5-c]pyrimidin-3(2H)-yl)ethyl)piperazin-1-yl)-3-fluorophenoxy)propanoic acid]
IC50 [1]: 0.8 nM | IC50 [2]: 9 nM | IC50 [3]: 398 nM

NCCOc1ccc(N2CCN(CCn3c(=O)sc4c3nc(N)n3nc(-c5ccco5)nc43)CC2)cc1 [Compound 13, 5-amino-3-(2-(4-(4-(2-aminoethoxy)phenyl)piperazin-1-yl)ethyl)-8-(furan-2-yl)thiazolo[5,4-e][1,2,4]triazolo[1,5-c]pyrimidin-2(3H)-one]
IC50 [1]: 0.6 nM | IC50 [2]: 2 nM | IC50 [3]: 63 nM

C[C@@H](Oc1ccc(N2CCN(CCn3c(=O)sc4c3nc(N)n3nc(-c5ccco5)nc43)CC2)c(F)c1)C(=O)O (single isomer, unassigned) [Compound 53]
IC50 [2]: 4 nM | IC50 [3]: 127 nM

C[C@H](Oc1ccc(N2CCN(CCn3c(=O)sc4c3nc(N)n3nc(-c5ccco5)nc43)CC2)c(F)c1)C(=O)O (single isomer, unassigned) [Compound 38]
IC50 [1]: 0.3 nM | IC50 [2]: 9 nM | IC50 [3]: 552 nM

Nc1nc2c(sc(=O)n2CCN2CCN(c3cc(OCC(=O)NCCN4CCOCC4)c(F)cc3F)CC2)c2nc(-c3ccco3)nn12 [Compound 97, 2-(5-(4-(2-(5-amino-8-(furan-2-yl)-2-oxothiazolo[5,4-e][1,2,4]triazolo[1,5-c]pyrimidin-3(2H)-yl)ethyl)piperazin-1-yl)-2,4-difluorophenoxy)-N-(2-morpholinoethyl)acetamide]
IC50 [1]: 1.1 nM | IC50 [3]: 30 nM

Nc1nc2c(sc(=O)n2CCN2CCN(c3ccc(S(=O)(=O)N4CCNCC4)cc3F)CC2)c2nc(-c3ccco3)nn12 [Compound 28, 5-amino-3-(2-(4-(2-fluoro-4-(piperazin-1-ylsulfonyl)phenyl)piperazin-1-yl)ethyl)-8-(furan-2-yl)thiazolo[5,4-e][1,2,4]triazolo[1,5-c]pyrimidin-2(3H)-one]
IC50 [1]: 0.2 nM | IC50 [2]: 4 nM | IC50 [3]: 115 nM

C[C@@H](Oc1cc(N2CCN(CCn3c(=O)sc4c3nc(N)n3nc(-c5ccco5)nc43)CC2)c(F)cc1F)C(=O)O (single isomer, unassigned) [Compound 61]
IC50 [1]: 0.9 nM | IC50 [2]: 15 nM | IC50 [3]: 810 nM

CS(=O)(=O)c1ccc(N2CCN(CCn3c(=O)sc4c3nc(N)n3nc(-c5ccco5)nc43)CC2)cc1 [Compound 20, 5-amino-8-(furan-2-yl)-3-(2-(4-(4-(methylsulfonyl)phenyl)piperazin-1-yl)ethyl)thiazolo[5,4-e][1,2,4]triazolo[1,5-c]pyrimidin-2(3H)-one]
IC50 [1]: 1.9 nM | IC50 [2]: 352 nM

Nc1nc2c(sc(=O)n2CCN2CCN(c3ccc(C(=O)NCCN4CCOCC4)cc3F)CC2)c2nc(-c3ccco3)nn12 [Compound 106, 4-(4-(2-(5-amino-8-(furan-2-yl)-2-oxothiazolo[5,4-e][1,2,4]triazolo[1,5-c]pyrimidin-3(2H)-yl)ethyl)piperazin-1-yl)-3-fluoro-N-(2-morpholinoethyl)benzamide]
IC50 [1]: 0.3 nM | IC50 [3]: 205 nM

Nc1nc2c(sc(=O)n2CCN2CCN(c3cccc(OCCO)c3)CC2)c2nc(-c3ccco3)nn12 [Compound 23, 5-amino-8-(furan-2-yl)-3-(2-(4-(3-(2-hydroxyethoxy)phenyl)piperazin-1-yl)ethyl)thiazolo[5,4-e][1,2,4]triazolo[1,5-c]pyrimidin-2(3H)-one]
IC50 [1]: 0.6 nM

Nc1nc2c(sc(=O)n2CCN2CCN(c3ccc(OCC(O)CO)cc3)CC2)c2nc(-c3ccco3)nn12 (centres unmarked) [Compound 12, 5-amino-3-(2-(4-(4-(2,3-dihydroxypropoxy)phenyl)piperazin-1-yl)ethyl)-8-(furan-2-yl)thiazolo[5,4-e][1,2,4]triazolo[1,5-c]pyrimidin-2(3H)-one]
IC50 [1]: 14.2 nM

Nc1nc2c(sc(=O)n2CCN2CCN(c3cc(OC[C@@H](O)CO)c(F)cc3F)CC2)c2nc(-c3ccco3)nn12 [Compound 127, (S)-5-amino-3-(2-(4-(5-(2,3-dihydroxypropoxy)-2,4-difluorophenyl)piperazin-1-yl)ethyl)-8-(furan-2-yl)thiazolo[5,4-e][1,2,4]triazolo[1,5-c]pyrimidin-2(3H)-one]
IC50 [1]: 0.5 nM | IC50 [3]: 35 nM

CN(C)CCNC(=O)c1cc(N2CCN(CCn3c(=O)sc4c3nc(N)n3nc(-c5ccco5)nc43)CC2)c(F)cc1F [Compound 81, 5-(4-(2-(5-amino-8-(furan-2-yl)-2-oxothiazolo[5,4-e][1,2,4]triazolo[1,5-c]pyrimidin-3(2H)-yl)ethyl)piperazin-1-yl)-N-(2-(dimethylamino)ethyl)-2,4-difluorobenzamide]
IC50 [1]: 117 nM

Nc1nc2c(sc(=O)n2CCN2CCN(c3cc(OCCCC(=O)O)c(F)cc3F)CC2)c2nc(-c3ccco3)nn12 [Compound 65, 4-(5-(4-(2-(5-amino-8-(furan-2-yl)-2-oxothiazolo[5,4-e][1,2,4]triazolo[1,5-c]pyrimidin-3(2H)-yl)ethyl)piperazin-1-yl)-2,4-difluorophenoxy)butanoic acid]
IC50 [1]: 0.6 nM | IC50 [2]: 27 nM | IC50 [3]: 494 nM

CS(=O)(=O)c1ccc(N2CCN(CCn3c(=O)sc4c3nc(N)n3nc(-c5ccco5)nc43)CC2)c(F)c1 [Compound 29, 5-amino-3-(2-(4-(2-fluoro-4-(methylsulfonyl)phenyl)piperazin-1-yl)ethyl)-8-(furan-2-yl)thiazolo[5,4-e][1,2,4]triazolo[1,5-c]pyrimidin-2(3H)-one]
IC50 [1]: 0.4 nM | IC50 [2]: 11 nM | IC50 [3]: 350 nM

C[S+]([O-])c1ccc(N2CCN(CCn3c(=O)sc4c3nc(N)n3nc(-c5ccco5)nc43)CC2)cc1 (centres unmarked) [Compound 21, 5-amino-8-(furan-2-yl)-3-(2-(4-(4-(methylsulfinyl)phenyl)piperazin-1-yl)ethyl)thiazolo[5,4-e][1,2,4]triazolo[1,5-c]pyrimidin-2(3H)-one]
IC50 [1]: 1.6 nM | IC50 [2]: 52 nM | IC50 [3]: 1310 nM

Nc1nc2c(sc(=O)n2CCN2CCN(c3ccc(F)c(OCC(=O)O)c3F)CC2)c2nc(-c3ccco3)nn12 [Compound 42, 2-(3-(4-(2-(5-amino-8-(furan-2-yl)-2-oxothiazolo[5,4-e][1,2,4]triazolo[1,5-c]pyrimidin-3(2H)-yl)ethyl)piperazin-1-yl)-2,6-difluorophenoxy)acetic acid]
IC50 [1]: 0.4 nM | IC50 [2]: 19 nM | IC50 [3]: 332 nM

CNS(=O)(=O)c1ccc(N2CCN(CCn3c(=O)sc4c3nc(N)n3nc(-c5ccco5)nc43)CC2)cc1 [Compound 19, 4-(4-(2-(5-amino-8-(furan-2-yl)-2-oxothiazolo[5,4-e][1,2,4]triazolo[1,5-c]pyrimidin-3(2H)-yl)ethyl)piperazin-1-yl)-N-methylbenzenesulfonamide]
IC50 [1]: 2.6 nM

CCOC(=O)COc1cc(N2CCN(CCn3c(=O)sc4c3nc(N)n3nc(-c5ccco5)nc43)CC2)c(F)cc1F [Compound 73, ethyl 2-(5-(4-(2-(5-amino-8-(furan-2-yl)-2-oxothiazolo[5,4-e][1,2,4]triazolo[1,5-c]pyrimidin-3(2H)-yl)ethyl)piperazin-1-yl)-2,4-difluorophenoxy)acetate]
IC50 [1]: 3.4 nM | IC50 [2]: 8 nM | IC50 [3]: 304 nM

Nc1nc2c(sc(=O)n2CCN2CCN(c3ccc(OCC(=O)NCCN4CCOCC4)cc3F)CC2)c2nc(-c3ccco3)nn12 [Compound 105, 2-(4-(4-(2-(5-amino-8-(furan-2-yl)-2-oxothiazolo[5,4-e][1,2,4]triazolo[1,5-c]pyrimidin-3(2H)-yl)ethyl)piperazin-1-yl)-3-fluorophenoxy)-N-(2-morpholinoethyl)acetamide]
IC50 [1]: 0.7 nM | IC50 [3]: 95 nM

NC(=O)c1cccc(N2CCN(CCn3c(=O)sc4c3nc(N)n3nc(-c5ccco5)nc43)CC2)c1 [Compound 22, 3-(4-(2-(5-amino-8-(furan-2-yl)-2-oxothiazolo[5,4-e][1,2,4]triazolo[1,5-c]pyrimidin-3(2H)-yl)ethyl)piperazin-1-yl)benzamide]
IC50 [1]: 1.4 nM | IC50 [2]: 6 nM | IC50 [3]: 352 nM
